# Counter-ions that a name gives are not always drawn.
# Assays:
# Pseudomonas aeruginosa = assay: Antimicrobial activity of urine collected from mice after oral dosing, against Pseudomonas aeruginosa; type: in vivo; details: for antimicrobial activity of urine against Pseudomonas: 60 mg/kg, similar operations; for antimicrobial activity of urine against Pseudomonas aeruginosa: oral, 50 mg/kg, urine collected 1 to 24 hours; for urinary antiseptic activity, PA: single oral dose 56.2 mg/kg; on urinary antiseptic activity, PA: key: +: urinary antiseptic activity and inhibition of microbial growth being observed; O: no urinary antiseptic activity and no inhibition of microbial growth are observed
# Description: (§1) Separate groups of mice are fasted overnight, but are provided with water ad libitum prior to oral administration of a substituted amidine test compound. […] Urine is collected in sterile containers at intervals over the period from 1 to 24 hours after administration of the test compound. The collected urine is assayed for antimicrobial activity against Escherichia coli, Pseudomonas aeruginosa and a Proteus species, either Proteus vulgaris or Proteus mirabilis. Urine samples collected from the separate groups of mice administered one of 2-(4-chlorophenyl)acetamidine hydrochloride, 2-(4-bromophenyl)-acetamidinehydrochloride, 2-(4-chlorophenyl)acetamidoxime hydrochloride and 2-(4-bromophenyl)acetamidoxime hydrochloride are found to be active against all three test organisms.
# (§2) The procedure of Example 1 is repeated, employing the substituted amidine compound 2-(4-bromophenyl)-acetamidine hydrochloride, and the known antiseptics gentamicin and nalidixic acid as test compounds. […]
# Escherichia coli = assay: Antimicrobial activity of urine collected from mice after oral dosing, against Escherichia coli; type: in vivo; details: for urinary antiseptic activity, EC: single oral dose 56.2 mg/kg; on urinary antiseptic activity, EC: key: +: urinary antiseptic activity and inhibition of microbial growth being observed; O: no urinary antiseptic activity and no inhibition of microbial growth are observed
# Description: as §1, §2
# [1] = test system: Proteus species, either Proteus vulgaris or Proteus mirabilis; assay: Antimicrobial activity of urine collected from mice after oral dosing, against a Proteus species (Example 1); type: in vivo, Proteus vulgaris or Proteus mirabilis (urine from mice); details: for antimicrobial activity of urine against Proteus: 60 mg/kg, similar operations; for antimicrobial activity of urine against Proteus species: oral, 50 mg/kg, urine collected 1 to 24 hours
# Description: as §1
# Proteus vulgaris = assay: Antimicrobial activity of urine collected from mice after oral dosing, against Proteus vulgaris (Example 2); type: in vivo; details: single oral dose 56.2 mg/kg; further: key: +: urinary antiseptic activity and inhibition of microbial growth being observed; O: no urinary antiseptic activity and no inhibition of microbial growth are observed
# Description: Separate groups of mice are fasted overnight, but are provided with water ad libitum prior to oral administration of a substituted amidine test compound. The test compounds are administered orally at a dosage rate of 50 milligrams of test compound per kilogram of animal body weight in an aqueous carrier. Urine is collected in sterile containers at intervals over the period from 1 to 24 hours after administration of the test compound. The collected urine is assayed for antimicrobial activity against Escherichia coli, Pseudomonas aeruginosa and a Proteus species, either Proteus vulgaris or Proteus mirabilis. Urine samples collected from the separate groups of mice administered one of 2-(4-chlorophenyl)acetamidine hydrochloride, 2-(4-bromophenyl)-acetamidinehydrochloride, 2-(4-chlorophenyl)acetamidoxime hydrochloride and 2-(4-bromophenyl)acetamidoxime hydrochloride are found to be active against all three test organisms.
# The procedure of Example 1 is repeated, employing the substituted amidine compound 2-(4-bromophenyl)-acetamidine hydrochloride, and the known antiseptics gentamicin and nalidixic acid as test compounds. Each test compound is administered in a single oral dose of 56.2 milligrams per kilogram; and separate urine samples are separately collected and assayed at intervals of 1, 4 and 24 hours after administration.
# Proteus mirabilis [2] = assay: Proteus mirabilis urinary tract infection in Wistar rats, 14 days treatment (Example 4); type: in vivo; details: infected Wistar rats, oral
# Excerpt: (§3) Several groups of Wistar rats are surgically prepared and given a urinary tract infection by injection into the lumen of the bladder of 0.1 milliliter of a brain-heart infusion broth culture of Proteus mirabilis, in a procedure similar to that of Miraglia, Transact. N.Y. Acad. Sc. 32, 337 (1970). One group is similarly prepared surgically, but is not infected with the test organism, providing an operated, non-infected control group. Three hours after the surgical operations are complete, the animals in three of the groups (the test groups) are orally administered 100 milligrams per kilogram of nalidixic acid, or 2-(4-bromophenyl)acetamidine hydrochloride at a dosage rate of 50 or 100 milligrams per kilogram. A fourth group is not administered any test compound to serve as an infected control group.
# (§4) The animals in each group are weighed daily and the test compounds are administered to the test groups daily at the same dosage rate for a total of 14 days. At the end of the 14 day test period, the animals are sacrificed. Swabs of the kidney pelvis and samples of bladder urine are obtained and examined by bacteriological culture techniques, and pathological examinations are carried out.
# Proteus mirabilis [3] = assay: Proteus mirabilis urinary tract infection in Holtzman rats (Example 5); type: in vivo; details: PO
# Excerpt: as §3, §4
# The operations of Example 4 are repeated using six Holtzman rats per group and using nitrofurantoin instead of nalidixic acid.
# [4] = Standard pharmacological evaluation procedures in mice; type: in vivo; details: 60 mg/kg
# Description: In other operations, 2-(4-bromophenyl)acetamidine hydrochloride is administered to mice at a dosage rate of 60 milligrams per kilogram in a series of standard pharmacological evaluation procedures.
# [5] = Acute oral lethality (LD50) in mice; details: mouse, in vivo, mice, per os, 24 hours, read-out: LD50 (dosage lethal to 50 percent of the mice)
# Description: Separate groups of mice are separately administered an aqueous composition containing 2-(4-bromophenyl)acetamidine hydrochloride. The compound is administered per os at various dosage rates, and the animals are held for 24 hours, after which deaths are recorded, and the LD50 (dosage lethal to 50 percent of the mice) is determined.
# Proteus mirabilis [6] = assay: Proteus mirabilis urinary tract infection in rats, bacterial count per kidney (Example 6); type: in vivo; details: oral, three doses at 4, 28, 52 hours, 72 hours
# Description: In a similar operation, a Proteus mirabilis urinary tract infection was established in rats using a similar surgical technique. In separate groups, the test compound 2-(4-bromophenyl)acetamidine p-toluene-sulfonate, or the reference compound nalidixic acid, were administered orally in three doses, 4, 28 and 52 hours after completion of the surgical technique used to establish the infection. Separate groups of rats were left untreated to serve as controls. After 72 hours, the animals were euthanized with carbon dioxide. The left kidney was removed, homogenized in 9 milliliters sterile saline solution, and fivefold dilutions of the resulting brei were made in brain-heart infusion broth. Bacterial counts in the dilutions were determined after 24 hours incubation at 37° C. The oral dose in milligrams per kilogram (mg/kg); millimoles per kilogram (mM); the number of animals in each group, and the base ten logarithm (Log10) of the bacterial count (number of organisms per kidney) are set out below.
# [7] = oral, 50 mg/kg, urine collected 1 to 24 hours
# [8] = 50 or 100 mg/kg per day, 14 days
compound,measurement,setting,value
"NC(Cc1ccc(Cl)cc1Cl)=NO [2-(2,4-dichlorophenylacetamidoxime hydrochloride, reference compound]",antimicrobial activity of urine against Pseudomonas,Pseudomonas aeruginosa,ineffective
same,antimicrobial activity of urine against E. coli,"Escherichia coli; 60 mg/kg, similar operations",ineffective
same,antimicrobial activity of urine against Proteus,[1],ineffective
Cl.N=C(N)Cc1ccc(Br)cc1 [2-(4-bromophenyl)acetamidine hydrochloride],antimicrobial activity of urine against Pseudomonas aeruginosa,Pseudomonas aeruginosa,active
same,"urinary antiseptic activity, PA",Pseudomonas aeruginosa; urine at 1 hour,+
same,"urinary antiseptic activity, PA",Pseudomonas aeruginosa; urine at 4 hours,+
same,antimicrobial activity of urine against E. coli,Escherichia coli; [7],active
same,"urinary antiseptic activity, EC",Escherichia coli; urine at 1 hour,+
same,"urinary antiseptic activity, EC",Escherichia coli; urine at 4 hours,+
same,"urinary antiseptic activity, EC",Escherichia coli; urine at 24 hours,+
same,"urinary antiseptic activity, PV",Proteus vulgaris; urine at 1 hour,+
same,"urinary antiseptic activity, PV",Proteus vulgaris; urine at 4 hours,+
same,weight gain rate,"Proteus mirabilis [2]; 50 mg/kg per day, 14 days",normal in all but one of the rats
same,weight gain rate after the tenth day,"Proteus mirabilis [2]; 50 mg/kg per day, after the tenth day",normal for all the rats in this group after the tenth day
same,weight gain rate,"Proteus mirabilis [2]; 100 mg/kg per day, 2-(4-bromophenyl)-acetamidine hydrochloride group",approximately mormal in all but two of the rats
same,weight gain after the sixth day,"Proteus mirabilis [2]; 100 mg/kg per day, after the sixth day",normal weight gain is observed with all but one of the test animals
same,gross pathological changes attributable to the infection,Proteus mirabilis [2]; [8],No gross pathological changes attributable to the infection
same,infecting Proteus organism in swab and urine cultures,Proteus mirabilis [2]; [8],no evidence of the infecting Proteus organism
same,bacteriological culture of swabs and urine,"Proteus mirabilis [2]; 50 or 100 mg/kg per day, 14 days, except slight E. coli growth in one rat",bacteriologically sterile
same,growth of E. coli in urine and kidney swab cultures,"Proteus mirabilis [2]; 50 or 100 mg/kg per day, one of the rats, attributed to contamination during autopsy",slight growth of E. coli noted in the urine and one of the kidney swabs from one of the rats
same,antimicrobial activity of urine against Proteus species,[1],active
same,Percent Infection (percent of surviving rats with Proteus infection of any degree),Proteus mirabilis [3]; 50 mg/kg,60.0%
same,Percent Pathology (percent total pathology signs observed over total possible observations times 100),Proteus mirabilis [3]; 50 mg/kg,13.6%
same,Percent Weight Gain,Proteus mirabilis [3]; 50 mg/kg,16.6%
same,Percent Infection (percent of surviving rats with Proteus infection of any degree),Proteus mirabilis [3]; 100 mg/kg,20.0%
same,Percent Pathology (percent total pathology signs observed over total possible observations times 100),Proteus mirabilis [3]; 100 mg/kg,12.7%
same,Percent Weight Gain,Proteus mirabilis [3]; 100 mg/kg,19.2%
same,analgesic activity,[4],no significant
same,anorectic activity,[4],no significant
same,anti-thrombotic activity,[4],some anti-thrombotic activity
same,antidepressant activity,[4],no significant
same,hypotensive activity,[4],no significant
same,sedative activity,[4],no significant
same,LD50 at 24 h,[5],562 mg/kg
Cl.NC(Cc1ccc(Br)cc1)=NO [2-(4-bromophenyl)acetamidoxime hydrochloride],antimicrobial activity of urine against Pseudomonas aeruginosa,Pseudomonas aeruginosa,active
same,antimicrobial activity of urine against E. coli,Escherichia coli; [7],active
same,antimicrobial activity of urine against Proteus species,[1],active
"Cl.N=C(N)COc1ccc(Cl)cc1 [2-(4-chlorophenoxy)acetamidine hydrochloride, reference compound]",antimicrobial activity of urine against Pseudomonas,Pseudomonas aeruginosa,ineffective
same,antimicrobial activity of urine against E. coli,"Escherichia coli; 60 mg/kg, similar operations",ineffective
same,antimicrobial activity of urine against Proteus,[1],ineffective
Cl.N=C(N)Cc1ccc(Cl)cc1 [2-(4-chlorophenyl)acetamidine hydrochloride],antimicrobial activity of urine against Pseudomonas aeruginosa,Pseudomonas aeruginosa,active
same,antimicrobial activity of urine against E. coli,Escherichia coli; [7],active
same,antimicrobial activity of urine against Proteus species,[1],active
Cl.NC(Cc1ccc(Cl)cc1)=NO [2-(4-chlorophenyl)acetamidoxime hydrochloride],antimicrobial activity of urine against Pseudomonas aeruginosa,Pseudomonas aeruginosa,active
same,antimicrobial activity of urine against E. coli,Escherichia coli; [7],active
same,antimicrobial activity of urine against Proteus species,[1],active
"Cl.NC(Cc1ccc([N+](=O)[O-])cc1)=NO [2-(4-nitrophenyl)acetamidoxime hydrochloride, reference compound]",antimicrobial activity of urine against Pseudomonas,Pseudomonas aeruginosa,not against the Pseudomonas or Proteus test organisms
same,antimicrobial activity of urine against E. coli,"Escherichia coli; 60 mg/kg, similar operations",effective against E. coli
same,antimicrobial activity of urine against Proteus,[1],not against the Pseudomonas or Proteus test organisms
"NC(Cc1ccccc1)=NO [2-phenylacetamidioxime hydrochloride, reference compound]",antimicrobial activity of urine against Pseudomonas,Pseudomonas aeruginosa,ineffective
same,antimicrobial activity of urine against E. coli,"Escherichia coli; 60 mg/kg, similar operations",ineffective
same,antimicrobial activity of urine against Proteus,[1],ineffective
"CCn1cc(C(=O)O)c(=O)c2ccc(C)nc21 [Nalidixic acid, nalidixic acid, reference compound]","urinary antiseptic activity, PA",Pseudomonas aeruginosa; urine at 4 hours,+
same,"urinary antiseptic activity, EC",Escherichia coli; urine at 1 hour,+
same,"urinary antiseptic activity, EC",Escherichia coli; urine at 4 hours,+
same,"urinary antiseptic activity, PV",Proteus vulgaris; urine at 1 hour,+
same,"urinary antiseptic activity, PV",Proteus vulgaris; urine at 4 hours,+
same,bacteriological culture of kidney pelvis swabs and bladder urine,"Proteus mirabilis [2]; 100 mg/kg per day, 14 days",bacteriologically sterile
same,gross pathology attributable to the infection,"Proteus mirabilis [2]; 100 mg/kg per day, 14 days",No gross pathology attributable to the infection
same,weight gain,"Proteus mirabilis [2]; 100 mg/kg per day, 14 days",gain weight normally
same,Mean Bacterial Count (number of organisms per kidney),Proteus mirabilis [6]; 50 mg/kg,3.20 Log10
same,Mean Bacterial Count (number of organisms per kidney),Proteus mirabilis [6]; 100 mg/kg,2.56 Log10
"O=C1CN(/N=C/c2ccc([N+](=O)[O-])o2)C(=O)N1 [Nitrofurantoin, nitrofurantoin, reference compound]",Percent Infection (percent of surviving rats with Proteus infection of any degree),Proteus mirabilis [3]; 100 mg/kg,33.0%
same,Percent Pathology (percent total pathology signs observed over total possible observations times 100),Proteus mirabilis [3]; 100 mg/kg,13.6%
same,Percent Weight Gain,Proteus mirabilis [3]; 100 mg/kg,16.9%
same,"Percent Weight Gain, excluding one rat with unexplained severe weight loss","Proteus mirabilis [3]; 100 mg/kg, excluding one rat",20.7%
gentamicin,"urinary antiseptic activity, EC",Escherichia coli; urine at 1 hour,+
same,"urinary antiseptic activity, PV",Proteus vulgaris; urine at 1 hour,+
same,"urinary antiseptic activity, PV",Proteus vulgaris; urine at 4 hours,+

# From US3991210A, “Acetamidine urinary antiseptics” (The Dow Chemical Company, priority 1975, dated 1976)
